Structures are written as SMILES. pEC50: −log10 of the molar value.

The assay is filed under the species Rattus norvegicus. As to the kind of experiment: GABA-B agonistic activity in rat anococcygeus. The format is functional.

`NCC(c1ccc(Cl)cc1)C(F)(F)P(=O)(O)O` (stereo unspecified) showed a pEC50 of roughly 3.52.

These data come from ChEMBL document CHEMBL1125949, “Synthesis and biological evaluation of 3-amino-2-(4-chlorophenyl)1,1-difluoropropyl phosphonic acid” (Bioorg Med Chem Lett, 1991).
